Experimental data published in US20230398130A1, “METHODS AND COMPOSITIONS FOR DIFFERENTIATING STEM CELLS” (Massachusetts Institute of Technology, priority 2020, published 2023).

Key:
[1] = system: ISC-enriched organoids; experiment: Primary screen, 384-well 2.5-D organoid differentiation (ENR+CD, 6 days): basal lysozyme secretion (LYZ.NS); format: cell-based, murine; conditions: for Dose.FC.LYZ.NS / SSMD.LYZ.NS: primary screen; for Dose.FC.LYZ.NS: FC vs plate median; for Z.LYZ.NS: standard z score of FC; for SSMD.LYZ.NS: strictly standardized mean difference
Source text: (§1) High-throughput screening.

[2] = system: ISC-enriched organoids; experiment: Primary screen, 384-well 2.5-D organoid differentiation (ENR+CD, 6 days): carbachol-induced lysozyme secretion (LYZ.S); format: cell-based, murine; conditions: primary screen; for Dose.FC.LYZ.S: FC vs plate median; for Z.LYZ.S: standard z score; for SSMD.LYZ.S: strictly standardized mean difference
Source text: as §1

[3] = system: ISC-enriched organoids; experiment: Primary screen, 384-well 2.5-D organoid differentiation (ENR+CD, 6 days, Target Selective Inhibitor Library, vs whole-plate median): ATP (CellTiter-Glo 3D, CTG); conditions: for Dose.FC.CTG / SSMD.CTG: primary screen; for Dose.FC.CTG: FC vs plate median; for Z.CTG: standard z score of FC; for SSMD.CTG: strictly standardized mean difference
[4] = 1st of the 4 dose lines of the treatment (dose not given)
[5] = 2nd of the 4 dose lines of the treatment (dose not given)
[6] = 3rd of the 4 dose lines of the treatment (dose not given)
[7] = 4th of the 4 dose lines of the treatment (dose not given)

Row | SMILES | SSMD.LYZ.NS [1, 4] | SSMD.LYZ.NS [1, 5] | SSMD.LYZ.NS [1, 6] | SSMD.LYZ.NS [1, 7] | Z.LYZ.S [2, 4] | Z.LYZ.S [2, 5] | Z.LYZ.S [2, 6] | Z.LYZ.S [2, 7] | SSMD.LYZ.S [2, 4] | SSMD.LYZ.S [2, 5] | SSMD.LYZ.S [2, 6] | SSMD.LYZ.S [2, 7] | Z.CTG ([3]; Dose 0.08 uM) | Z.CTG ([3]; Dose 0.40 uM) | Z.CTG ([3]; Dose 2.00 uM) | Z.CTG ([3]; Dose 10.00 uM) | SSMD.CTG [3, 4] | SSMD.CTG [3, 5] | SSMD.CTG [3, 6] | SSMD.CTG [3, 7] | further results
1 | C[C@](O)(COc1ccc(C#N)cc1)C(=O)Nc1ccc(C#N)c(C(F)(F)F)c1 [MK-2866 (GTx-024)] | 0.314 | 0.150 | 0.169 | −0.515 | 0.466 | 0.322 | 0.506 | −0.463 | 0.378 | 0.164 | 0.307 | −0.543 | 0.003 | −0.474 | −0.210 | −0.877 | 0.004 | −0.285 | −0.199 | −0.814 | Dose.FC.LYZ.NS ([1]; Dose 0.08 uM): 0.035 log 2 fold change; Z.LYZ.NS ([1]; Dose 0.08 uM): 0.309; Dose.FC.LYZ.NS ([1]; Dose 0.40 uM): 0.028 log 2 fold change; Z.LYZ.NS ([1]; Dose 0.40 uM): 0.241; Dose.FC.LYZ.NS ([1]; Dose 2.00 uM): 0.036 log 2 fold change; Z.LYZ.NS ([1]; Dose 2.00 uM): 0.310; Dose.FC.LYZ.NS ([1]; Dose 10.00 uM): −0.059 log 2 fold change; Z.LYZ.NS ([1]; Dose 10.00 uM): −0.510; Dose.FC.LYZ.S ([2]; Dose 0.08 uM): 0.072 log 2 fold change; Dose.FC.LYZ.S ([2]; Dose 0.40 uM): 0.050 log 2 fold change; Dose.FC.LYZ.S ([2]; Dose 2.00 uM): 0.078 log 2 fold change; Dose.FC.LYZ.S ([2]; Dose 10.00 uM): −0.072 log 2 fold change; Dose.FC.CTG ([3]; Dose 0.08 uM): 0.001 log 2 fold change; Dose.FC.CTG ([3]; Dose 0.40 uM): −0.198 log 2 fold change; Dose.FC.CTG ([3]; Dose 2.00 uM): −0.088 log 2 fold change; Dose.FC.CTG ([3]; Dose 10.00 uM): −0.367 log 2 fold change
2 | O=C(O)Cn1nnc(-c2cc(N3CCC(Oc4cc(F)ccc4Br)CC3)no2)n1 [MK-8245] | 0.168 | 0.200 | −0.322 | −0.716 | 0.449 | 1.194 | −0.399 | −0.799 | 0.442 | 0.527 | −0.357 | −0.752 | 0.374 | −0.269 | −0.051 | −0.629 | 0.453 | −0.219 | −0.054 | −0.921 | 
3 | COc1ccc(CNCc2cccc3ccccc23)cc1.Cl [ML133 HCl] | 0.282 | −0.131 | 0.740 | −0.152 | 0.404 | −0.118 | 0.565 | −0.089 | 0.324 | −0.129 | 0.368 | −0.088 | −0.023 | −0.360 | −0.591 | −0.096 | −0.026 | −0.437 | −0.560 | −0.133 | Dose.FC.LYZ.NS ([1]; Dose 0.08 uM): 0.030 log 2 fold change; Z.LYZ.NS ([1]; Dose 0.08 uM): 0.261; Dose.FC.LYZ.NS ([1]; Dose 0.40 uM): −0.013 log 2 fold change; Z.LYZ.NS ([1]; Dose 0.40 uM): −0.116; Dose.FC.LYZ.NS ([1]; Dose 2.00 uM): 0.073 log 2 fold change; Z.LYZ.NS ([1]; Dose 2.00 uM): 0.633; Dose.FC.LYZ.NS ([1]; Dose 10.00 uM): −0.018 log 2 fold change; Z.LYZ.NS ([1]; Dose 10.00 uM): −0.155; Dose.FC.LYZ.S ([2]; Dose 0.08 uM): 0.062 log 2 fold change; Dose.FC.LYZ.S ([2]; Dose 0.40 uM): −0.018 log 2 fold change; Dose.FC.LYZ.S ([2]; Dose 2.00 uM): 0.087 log 2 fold change; Dose.FC.LYZ.S ([2]; Dose 10.00 uM): −0.014 log 2 fold change; Dose.FC.CTG ([3]; Dose 0.08 uM): −0.009 log 2 fold change; Dose.FC.CTG ([3]; Dose 0.40 uM): −0.151 log 2 fold change; Dose.FC.CTG ([3]; Dose 2.00 uM): −0.247 log 2 fold change; Dose.FC.CTG ([3]; Dose 10.00 uM): −0.040 log 2 fold change
4 | CCCC(=O)Nc1cccc(NC(=O)c2ccccc2Br)c1 [ML161] | 0.117 | −0.239 | 0.354 | −0.421 | 0.113 | −0.173 | 0.158 | −0.429 | 0.096 | −0.148 | 0.152 | −0.282 | 0.205 | 0.067 | 0.157 | −0.084 | 0.278 | 0.087 | 0.229 | −0.107 | Dose.FC.LYZ.NS ([1]; Dose 0.08 uM): 0.018 log 2 fold change; Z.LYZ.NS ([1]; Dose 0.08 uM): 0.158; Dose.FC.LYZ.NS ([1]; Dose 0.40 uM): −0.027 log 2 fold change; Z.LYZ.NS ([1]; Dose 0.40 uM): −0.237; Dose.FC.LYZ.NS ([1]; Dose 2.00 uM): 0.037 log 2 fold change; Z.LYZ.NS ([1]; Dose 2.00 uM): 0.323; Dose.FC.LYZ.NS ([1]; Dose 10.00 uM): −0.057 log 2 fold change; Z.LYZ.NS ([1]; Dose 10.00 uM): −0.494; Dose.FC.LYZ.S ([2]; Dose 0.08 uM): 0.017 log 2 fold change; Dose.FC.LYZ.S ([2]; Dose 0.40 uM): −0.027 log 2 fold change; Dose.FC.LYZ.S ([2]; Dose 2.00 uM): 0.024 log 2 fold change; Dose.FC.LYZ.S ([2]; Dose 10.00 uM): −0.066 log 2 fold change; Dose.FC.CTG ([3]; Dose 0.08 uM): 0.086 log 2 fold change; Dose.FC.CTG ([3]; Dose 0.40 uM): 0.028 log 2 fold change; Dose.FC.CTG ([3]; Dose 2.00 uM): 0.066 log 2 fold change; Dose.FC.CTG ([3]; Dose 10.00 uM): −0.035 log 2 fold change
5 | COc1ccc(-c2cnc3c(-c4cccc5ncccc45)cnn3c2)cc1 [ML347] | 1.159 | 1.286 | 0.509 | −0.643 | 0.608 | 0.715 | 0.467 | −1.303 | 0.546 | 0.729 | 0.450 | −1.245 | 0.439 | 0.500 | 0.328 | −0.404 | 0.464 | 0.557 | 0.403 | −0.307 | Dose.FC.LYZ.NS ([1]; Dose 0.08 uM): 0.124 log 2 fold change; Z.LYZ.NS ([1]; Dose 0.08 uM): 1.079; Dose.FC.LYZ.NS ([1]; Dose 0.40 uM): 0.132 log 2 fold change; Z.LYZ.NS ([1]; Dose 0.40 uM): 1.150; Dose.FC.LYZ.NS ([1]; Dose 2.00 uM): 0.069 log 2 fold change; Z.LYZ.NS ([1]; Dose 2.00 uM): 0.600; Dose.FC.LYZ.NS ([1]; Dose 10.00 uM): −0.124 log 2 fold change; Z.LYZ.NS ([1]; Dose 10.00 uM): −1.078; Dose.FC.LYZ.S ([2]; Dose 0.08 uM): 0.094 log 2 fold change; Dose.FC.LYZ.S ([2]; Dose 0.40 uM): 0.111 log 2 fold change; Dose.FC.LYZ.S ([2]; Dose 2.00 uM): 0.072 log 2 fold change; Dose.FC.LYZ.S ([2]; Dose 10.00 uM): −0.202 log 2 fold change; Dose.FC.CTG ([3]; Dose 0.08 uM): 0.184 log 2 fold change; Dose.FC.CTG ([3]; Dose 0.40 uM): 0.209 log 2 fold change; Dose.FC.CTG ([3]; Dose 2.00 uM): 0.137 log 2 fold change; Dose.FC.CTG ([3]; Dose 10.00 uM): −0.169 log 2 fold change
